The source of these data is ChEMBL document CHEMBL4483862, “Open-source discovery of chemical leads for next-generation chemoprotective antimalarials” (2018).

The structures appear in SMILES notation.

For this experiment, the system named is Plasmodium berghei. The experiment in a line: Luciferase/luciferin-expressing antifolate-resistant parasites were used to infect a culture of HepG2 cells that were pre-incubated with compounds. Infected hepatocytes emit light due to the luciferase reaction. Assay results are presented as the percent inhibition of light emission compared to control. […]. Type of experiment: functional. The conditions noted are these: sporozoite; for IC90: read-out: LUCIFERASE INFECTION ASSAY - IC90.

By IC50 is commonly meant the concentration needed to halve the response being measured. The IC90 is the concentration at which the effect reaches the 90% level. Take `CC1(C)C=Cc2cc(/C(N)=N/OC(=O)c3ccccc3)ccc2O1`: the concentration for an effect of 90% (IC90) worked out at 0.211 µM. For the same compound, the IC50 (FFLUC_HILL_SLOPE 1.86, FFLUC_R_SQUARED 0.604, PBLUC_HILL_SLOPE 0.872, PBLUC_R_SQUARED 0.782, read-out: LUCIFERASE INFECTION ASSAY - IC50) was 0.0169 µM.
In the case of `Nc1c(C(=O)Nc2cc(Cl)cc(Cl)c2)sc(Nc2ccccc2)c1C(=O)Nc1ccc(Cl)cc1`, the IC90 is over 10 µM. Also, the IC50 (FFLUC_HILL_SLOPE 1.81, FFLUC_R_SQUARED 0.586, read-out: LUCIFERASE INFECTION ASSAY - IC50) was over 10 µM.
On to `Cc1csc(-n2c(C)cc(C(=O)CSc3nc(N)cc(N)n3)c2C)n1`, for which the IC90 was over 10 µM. In addition, the IC50 (FFLUC_HILL_SLOPE 1.79, FFLUC_R_SQUARED 0.665, read-out: LUCIFERASE INFECTION ASSAY - IC50) is over 10 µM.
Turning to `N#Cc1cc(Cl)ccc1N1C(=O)C=CC1=O`, the IC90 is over 14.2 µM. Further, the IC50 (FFLUC_HILL_SLOPE 1.82, FFLUC_R_SQUARED 0.838, PBLUC_HILL_SLOPE 13, PBLUC_R_SQUARED 0.372, read-out: LUCIFERASE INFECTION ASSAY - IC50) amounted to 13.6 µM.
In the case of `Cc1ccc(Cl)cc1N1C(=O)C=CC1=O`, the IC90 was over 14.9 µM. Besides, where the note is “FFLUC_HILL_SLOPE 1.79, FFLUC_R_SQUARED 0.452, HEPG2TOX_HILL_SLOPE 16.8, HEPG2TOX_R_SQUARED 0.904, PBLUC_HILL_SLOPE 2.51, PBLUC_R_SQUARED 0.543, read-out: LUCIFERASE INFECTION ASSAY - IC50”, the IC50 amounted to 6.7 µM.
As for `Cc1ccc(-n2c(SC(C)C(=O)NCCc3cccs3)nnc2-c2ccccc2F)cc1` (stereo unspecified), the IC90 was over 10 µM. Besides, the 50% inhibitory concentration (IC50) (FFLUC_HILL_SLOPE 1.87, FFLUC_R_SQUARED 0.282, HEPG2TOX_HILL_SLOPE 0.0378, HEPG2TOX_R_SQUARED 0.0131, PBLUC_HILL_SLOPE 12.6, PBLUC_R_SQUARED 0.129, read-out: LUCIFERASE INFECTION ASSAY - IC50) was over 10 µM.
Take `Oc1c(C(c2ccc(Br)cc2)N2CCCC2)cc(Cl)c2cccnc12` (stereo unspecified): the concentration for an effect of 90% (IC90) came out at 4.01 µM. The IC50 (FFLUC_HILL_SLOPE 1.86, FFLUC_R_SQUARED 0.64, HEPG2TOX_HILL_SLOPE 1.66, HEPG2TOX_R_SQUARED 0.745, PBLUC_HILL_SLOPE 3.81, PBLUC_R_SQUARED 0.789, read-out: LUCIFERASE INFECTION ASSAY - IC50) amounted to 2.25 µM.
With `Cc1cc(C)c(-c2csc(NC(=O)c3ccccc3SCC(=O)NCC3CCCCC3)n2)cc1C`, the IC90 was determined as 4.99 µM. The half-maximal inhibitory concentration (IC50) (FFLUC_HILL_SLOPE 1.8, FFLUC_R_SQUARED 0.211, HEPG2TOX_HILL_SLOPE 0.456, HEPG2TOX_R_SQUARED 0.807, PBLUC_HILL_SLOPE 10.4, PBLUC_R_SQUARED 0.477, read-out: LUCIFERASE INFECTION ASSAY - IC50) was determined as 4.04 µM.
On to `CC1C/C(=C/c2ccc(Cl)cc2)C2=NN(C(=O)c3ccc4ncccc4c3)C(c3ccc(Cl)cc3)C2C1` (stereo unspecified), for which the IC90 turned out to be 6.04 µM. Besides, the 50% inhibitory concentration (IC50) (FFLUC_HILL_SLOPE 1.77, FFLUC_R_SQUARED 0.609, HEPG2TOX_HILL_SLOPE 4.89, HEPG2TOX_R_SQUARED 0.557, PBLUC_HILL_SLOPE 71.4, PBLUC_R_SQUARED 0.509, read-out: LUCIFERASE INFECTION ASSAY - IC50) worked out at 5.86 µM.
In the case of `O=c1c2ccsc2ncn1CCS(=O)(=O)N1CCN(C(c2ccc(F)cc2)c2ccc(F)cc2)CC1`, the IC90 is over 10 µM. Besides, the IC50 (FFLUC_HILL_SLOPE 1.84, FFLUC_R_SQUARED 0.406, PBLUC_HILL_SLOPE 0.263, PBLUC_R_SQUARED 0.514, read-out: LUCIFERASE INFECTION ASSAY - IC50) was 1.49 µM.
For `c1coc(-c2c3c(nc4c2oc2ccccc24)CCCCCCCCCC3)c1`, the IC90 was over 10 µM. For the setting “FFLUC_HILL_SLOPE 1.77, FFLUC_R_SQUARED 0.636, read-out: LUCIFERASE INFECTION ASSAY - IC50”, the IC50 is over 10 µM.
For `CSc1sc(-c2nc(C)cs2)c(C)c1-c1ccnc(SCc2c(Cl)cccc2Cl)n1`, the IC90 is over 6.46 µM. The IC50 (FFLUC_HILL_SLOPE 1.79, FFLUC_R_SQUARED 0.514, read-out: LUCIFERASE INFECTION ASSAY - IC50) is over 6.46 µM.
For `O=[N+]([O-])c1ccc(N/N=C2\CCSc3ccc(Cl)cc32)cc1`, the IC90 stood at 9.78 µM. The IC50 (FFLUC_HILL_SLOPE 1.76, FFLUC_R_SQUARED 0.654, HEPG2TOX_HILL_SLOPE 8.57, HEPG2TOX_R_SQUARED 0.177, PBLUC_HILL_SLOPE 41.5, PBLUC_R_SQUARED 0.423, read-out: LUCIFERASE INFECTION ASSAY - IC50) came out at 9.27 µM.
`O=C(Nc1ccc(N2CCCC2)cn1)c1cccc(Cl)c1`: the IC90 was 0.145 µM. For the same compound, the IC50 (FFLUC_HILL_SLOPE 1.87, FFLUC_R_SQUARED 0.554, HEPG2TOX_HILL_SLOPE 1.22, HEPG2TOX_R_SQUARED 0.956, PBLUC_HILL_SLOPE 1.63, PBLUC_R_SQUARED 0.915, read-out: LUCIFERASE INFECTION ASSAY - IC50) was determined as 0.0377 µM.
With `O=C(NC(c1ccccc1)C1CC1)c1cccc(S(=O)(=O)N2CCN(c3ccc(F)cc3)CC2)c1` (stereo unspecified), the IC90 was over 10 µM. In addition, the IC50 (FFLUC_HILL_SLOPE 1.82, FFLUC_R_SQUARED 0.654, PBLUC_HILL_SLOPE 3.16, PBLUC_R_SQUARED 0.76, read-out: LUCIFERASE INFECTION ASSAY - IC50) stood at 7.34 µM.
Consider `CC(C)NS(=O)(=O)c1ccc(NC(=S)NC(=O)C(c2ccccc2)c2ccccc2)cc1`, for which the IC90 is over 10 µM. The IC50 (FFLUC_HILL_SLOPE 1.86, FFLUC_R_SQUARED 0.596, HEPG2TOX_HILL_SLOPE 15.1, HEPG2TOX_R_SQUARED 0.768, PBLUC_HILL_SLOPE 9.02, PBLUC_R_SQUARED 0.275, read-out: LUCIFERASE INFECTION ASSAY - IC50) stood at 8.35 µM.
In the case of `CCOc1ccc(-c2n[nH]c(C)c2Oc2ccccc2Br)c(O)c1`, the IC90 was over 8.48 µM. Further, the IC50 (FFLUC_HILL_SLOPE 1.83, FFLUC_R_SQUARED 0.626, read-out: LUCIFERASE INFECTION ASSAY - IC50) was over 8.48 µM.
Turning to `CCN(CC)Cc1ccc(OCC(=O)Nc2ccc(Cl)cc2)c2ncccc12`, the IC90 was over 10 µM. The IC50 (FFLUC_HILL_SLOPE 1.82, FFLUC_R_SQUARED 0.795, HEPG2TOX_HILL_SLOPE 1.24, HEPG2TOX_R_SQUARED 0.929, read-out: LUCIFERASE INFECTION ASSAY - IC50) was over 10 µM.
In the case of `Cc1cc(O)c(C(C)C)cc1NC1=NC(=O)S/C1=C\c1ccccc1OCC(=O)Nc1ccc(Cl)cc1`, the IC90 is 9.08 µM. In addition, the IC50 (FFLUC_HILL_SLOPE 1.8, FFLUC_R_SQUARED 0.548, PBLUC_HILL_SLOPE 29.3, PBLUC_R_SQUARED 0.485, read-out: LUCIFERASE INFECTION ASSAY - IC50) stood at 8.43 µM.
For `O=C1C=C(Nc2ccccc2)/C(=N\c2ccccc2)c2c1oc1ccc(Nc3ccccc3)cc21`, the IC90 is over 10 µM. Further, the 50% inhibitory concentration (IC50) (FFLUC_HILL_SLOPE 1.75, FFLUC_R_SQUARED 0.754, HEPG2TOX_HILL_SLOPE 1.61, HEPG2TOX_R_SQUARED 0.885, read-out: LUCIFERASE INFECTION ASSAY - IC50) was over 10 µM.
For the compound `CCOc1ccc(C(C)=O)cc1COC(=O)c1cc(-c2cccc3ccccc23)nc2ccccc12`, the 90% effect concentration (IC90) was over 10 µM. In addition, the IC50 (FFLUC_HILL_SLOPE 1.76, FFLUC_R_SQUARED 0.222, read-out: LUCIFERASE INFECTION ASSAY - IC50) was over 10 µM.
Consider `Cc1[nH]c2ccccc2c1C(=O)C(C)OC(=O)c1c2c(nc3ccccc13)/C(=C/c1cccc([N+](=O)[O-])c1)CCC2` (stereo unspecified), for which the IC90 was over 10 µM. Further, the IC50 (FFLUC_HILL_SLOPE 1.81, FFLUC_R_SQUARED 0.362, PBLUC_HILL_SLOPE 3.43, PBLUC_R_SQUARED 0.216, read-out: LUCIFERASE INFECTION ASSAY - IC50) came to 6.23 µM.
With `CCOC(=O)c1ccc(Oc2c[nH]nc2-c2ccc(OC)cc2O)cc1`, the concentration for an effect of 90% (IC90) was over 9.31 µM. In addition, the IC50 (FFLUC_HILL_SLOPE 1.78, FFLUC_R_SQUARED 0.28, read-out: LUCIFERASE INFECTION ASSAY - IC50) is over 9.31 µM.
As to `Fc1ccc2c(c1)C(Nc1nc(-c3cccnc3)nc3ccccc13)CCS2` (stereo unspecified), the IC90 was 4.27 µM. The 50% inhibitory concentration (IC50) (FFLUC_HILL_SLOPE 1.8, FFLUC_R_SQUARED 0.403, PBLUC_HILL_SLOPE 13.2, PBLUC_R_SQUARED 0.43, read-out: LUCIFERASE INFECTION ASSAY - IC50) was determined as 3.62 µM.
As for `Cc1ccc(S(=O)(=O)c2nc(/C=C3\N(C)c4ccccc4C3(C)C)sc2Cl)cc1`, the IC90 is over 10 µM. Under “FFLUC_HILL_SLOPE 1.82, FFLUC_R_SQUARED 0.745, read-out: LUCIFERASE INFECTION ASSAY - IC50”, the IC50 was over 10 µM.
As to `Cc1ccc(COC(=O)c2c(Cl)nc3sccn23)cc1`, the IC90 was 0.397 µM. For the same compound, the IC50 (FFLUC_HILL_SLOPE 1.77, FFLUC_R_SQUARED 0.868, HEPG2TOX_HILL_SLOPE 1.9, HEPG2TOX_R_SQUARED 0.904, PBLUC_HILL_SLOPE 1.95, PBLUC_R_SQUARED 0.73, read-out: LUCIFERASE INFECTION ASSAY - IC50) stood at 0.129 µM.
For the compound `Cc1cc(C(=O)CSc2nc3ccccc3c(=O)n2-c2ccc(OC(F)F)cc2)c(C)n1-c1ccc(F)c(Cl)c1`, the IC90 is over 10 µM. Further, where the note is “FFLUC_HILL_SLOPE 1.77, FFLUC_R_SQUARED 0.792, PBLUC_HILL_SLOPE 12.5, PBLUC_R_SQUARED 0.0853, read-out: LUCIFERASE INFECTION ASSAY - IC50”, the IC50 stood at 9.61 µM.
In the case of `COc1ccc(-c2cnc(N)c(-c3ccc(O)c(OC)c3)c2)cn1`, the IC90 came to 3.7 µM. Further, for the setting “FFLUC_HILL_SLOPE 1.75, FFLUC_R_SQUARED 0.121, PBLUC_HILL_SLOPE 11, PBLUC_R_SQUARED 0.572, read-out: LUCIFERASE INFECTION ASSAY - IC50”, the IC50 turned out to be 3.03 µM.
